Test results taken from patent publication EP4810052A2, “HCRHR2 SELECTIVE POLYPEPTIDES” (Gubra A/S, priority 2023, dated 2026).
Starred links: 1 amine or outer side, 2 acyl side, 3 side chain; linkers in the order of their positions; H or OH if unused. Non-standard residues stand in square brackets, D forms with d. Residues, ends and D or L forms follow the SMILES beside them. Groups on a side chain read outwards from the residue. *: point of attachment. C20 diacid = O=C(O)CCCCCCCCCCCCCCCCCCC(=O)*; γGlu = O=C(O)[C@H](CCC(=O)[*:2])N[*:1]; Nle = CCCC[C@H](N)C(=O)O; AEEA = NCCOCCOCC(=O)O; Aib = CC(C)(N)C(=O)O

Experiments:
[1] = Body mass and body fat content in mouse model of diet-induced obesity (DIO); type: in vivo; conditions: DIO mice; for Blood HbA1c / M. Gastrocnemius / M. Soleus / Body weight at termination / Fat mass change from baseline / Lean mass change from baseline / Relative body weight change at termination: Table 17 study; for Body weight at termination / Fat mass change from baseline / Lean mass change from baseline / Relative body weight change at termination: ± SEM
Procedure: SEQ ID NO: 3, SEQ ID NO: 6, SEQ ID NO: 238, SEQ ID NO: 16 and SEQ ID NO: 215 were assessed for their ability to reduce body mass and body fat content in a mouse model of diet-induced obesity (DIO).
Male C57BL/6JRj mice were obtained from JanVier (JanVier Labs, France) at 5 weeks of age. The animals were group-housed during obesity induction and then single housed 2 weeks prior to study start. They were housed under a 12/12 h dark-light cycle, light off at 3 PM. Room temperature was controlled to 22°C ± 1°C, with 60 % ± 20% humidity. For 22-23 weeks prior to treatment start and throughout the study, the animals had ad libitum access to high-fat diet (60% kcal fat, D12492, Research Diets) and tap water.
The animals were randomized according to lean mass (EchoMRI) and body weight. Animals were dosed subcutaneously […] for 30-32 days. In study 1, the animals were dosed with vehicle or SEQ ID NO: 3 (10, 30, 60 or 100 nmol/kg). In study 2, the animals were dosed with vehicle or SEQ ID NO: 6 (10 or 30 nmol/kg), SEQ ID NO: 238 (10 or 30 nmol/kg), SEQ ID NO: 16 (10 or 30 nmol/kg), SEQ ID NO: 215 (10 or 30 nmol/kg) or SEQ ID NO: 3 (30 nmol/kg).
Body weight and food intake were recorded daily until day 28 and body composition evaluated on day 26 using EchoMRI. At termination, blood for HbA1c analyses were collected and M. gastrocnemius and M. soleus were weighed.
Statistical significance was evaluated using One-way analysis of variance with Dunnett's multiple comparison test. P < 0.05 was considered statistically significant.

hCRHR2a = target: T1, hCRHR2a (Homo sapiens, UniProt Q13324); experiment: cAMP potency, transiently transfected CHO-K1 cells, hCRHR2a; type: cell-based; conditions: transiently transfected CHO-K1, average n=3; read-out: Transient cell system EC50 (nM) hCRHR 2a
T1 construct: DYK (FLAG); host or cells: CHO-K1, transiently transfected
T1 sequence (Q13324 1-411): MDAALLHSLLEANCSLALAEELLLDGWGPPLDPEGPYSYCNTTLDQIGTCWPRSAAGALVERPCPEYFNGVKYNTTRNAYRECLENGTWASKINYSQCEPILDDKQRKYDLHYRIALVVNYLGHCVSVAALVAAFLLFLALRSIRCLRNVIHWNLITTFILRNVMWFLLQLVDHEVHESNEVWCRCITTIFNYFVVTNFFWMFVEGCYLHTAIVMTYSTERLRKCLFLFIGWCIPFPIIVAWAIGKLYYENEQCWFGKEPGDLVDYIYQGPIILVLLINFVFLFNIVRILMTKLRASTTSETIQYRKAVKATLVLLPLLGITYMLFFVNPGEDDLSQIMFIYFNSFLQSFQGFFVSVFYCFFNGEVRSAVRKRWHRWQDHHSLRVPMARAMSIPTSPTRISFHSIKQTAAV

hCRHR2b = target: T2, hCRHR2b (Homo sapiens, UniProt Q13324); experiment: cAMP potency, transiently transfected CHO-K1 cells, hCRHR2b; type: cell-based; conditions: transiently transfected CHO-K1, average n=3; read-out: Transient cell system EC50 (nM) hCRHR 2b
T2 construct: DYK (FLAG); host or cells: CHO-K1, transiently transfected
T2 sequence (Q13324 1-438 isoform Q13324-2): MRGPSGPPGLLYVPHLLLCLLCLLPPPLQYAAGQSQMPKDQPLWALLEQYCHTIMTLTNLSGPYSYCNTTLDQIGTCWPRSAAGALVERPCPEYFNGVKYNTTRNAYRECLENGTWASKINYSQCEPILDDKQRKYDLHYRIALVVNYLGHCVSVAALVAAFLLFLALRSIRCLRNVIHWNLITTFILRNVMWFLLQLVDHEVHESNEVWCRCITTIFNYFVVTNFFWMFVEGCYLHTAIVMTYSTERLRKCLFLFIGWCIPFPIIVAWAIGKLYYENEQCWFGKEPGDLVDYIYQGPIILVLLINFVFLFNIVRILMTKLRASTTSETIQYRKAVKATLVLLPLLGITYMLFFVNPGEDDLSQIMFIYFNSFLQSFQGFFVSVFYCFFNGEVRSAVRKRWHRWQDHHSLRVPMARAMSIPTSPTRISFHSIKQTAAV

mCRHR2 = target: T3, mCRHR2 (Mus musculus, UniProt Q60748); experiment: cAMP potency, transiently transfected CHO-K1 cells, mCRHR2; type: cell-based; conditions: transiently transfected CHO-K1, average n=3; read-out: Transient cell system EC50 (nM) mCRH R2
T3 construct: DYK (FLAG); host or cells: CHO-K1, transiently transfected
T3 sequence (Q60748 1-431 isoform Q60748-2): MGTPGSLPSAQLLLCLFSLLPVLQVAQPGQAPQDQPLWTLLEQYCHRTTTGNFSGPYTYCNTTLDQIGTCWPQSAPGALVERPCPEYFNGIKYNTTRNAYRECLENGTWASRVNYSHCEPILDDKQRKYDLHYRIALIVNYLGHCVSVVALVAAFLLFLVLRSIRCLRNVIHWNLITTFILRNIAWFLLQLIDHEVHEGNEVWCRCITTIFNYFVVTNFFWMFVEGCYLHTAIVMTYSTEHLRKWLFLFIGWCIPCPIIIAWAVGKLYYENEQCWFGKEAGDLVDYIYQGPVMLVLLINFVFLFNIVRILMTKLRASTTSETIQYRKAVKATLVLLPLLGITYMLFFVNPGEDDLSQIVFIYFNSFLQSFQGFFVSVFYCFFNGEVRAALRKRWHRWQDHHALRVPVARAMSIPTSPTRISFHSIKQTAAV
Procedure: Selected peptides were tested for potency on different species (mouse, rat, porcine) using transiently transfected CHO-K1 cells using the general procedure.

hCRHR1 = target: T4, hCRHR1 (Homo sapiens, UniProt P34998); experiment: cAMP potency, transiently transfected CHO-K1 cells, hCRHR1; type: cell-based; parameters: DYK (FLAG); host or cells: CHO-K1, transiently transfected; conditions: transiently transfected CHO-K1, average n=3; read-out: Transient cell system EC50 (nM) hCR HR1
T4 sequence (P34998 24-415): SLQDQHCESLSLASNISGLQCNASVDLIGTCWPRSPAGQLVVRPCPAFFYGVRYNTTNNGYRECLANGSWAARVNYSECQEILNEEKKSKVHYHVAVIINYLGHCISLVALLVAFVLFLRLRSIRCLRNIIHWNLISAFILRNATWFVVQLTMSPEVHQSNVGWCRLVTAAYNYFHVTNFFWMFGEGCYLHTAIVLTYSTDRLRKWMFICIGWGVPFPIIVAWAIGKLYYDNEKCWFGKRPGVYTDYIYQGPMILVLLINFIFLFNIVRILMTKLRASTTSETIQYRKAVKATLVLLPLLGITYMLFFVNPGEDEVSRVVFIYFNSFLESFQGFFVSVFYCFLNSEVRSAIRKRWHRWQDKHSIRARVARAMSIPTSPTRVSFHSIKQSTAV

CCCC[C@H](NC(=O)[C@@H](NC(=O)[C@H](CCC(=O)O)NC(=O)[C@H](C)NC(=O)[C@H](CC(N)=O)NC(=O)C(C)(C)NC(=O)[C@H](CCCCNC(=O)COCCOCCNC(=O)COCCOCCNC(=O)CC[C@H](NC(=O)CC[C@H](NC(=O)CCCCCCCCCCCCCCCCCCC(=O)O)C(=O)O)C(=O)O)NC(=O)[C@H](C)NC(=O)[C@H](CCC(N)=O)NC(=O)[C@H](CCC(=O)O)NC(=O)[C@H](CCCNC(=N)N)NC(=O)[C@H](C)NC(=O)[C@H](C)NC(=O)[C@H](CCCNC(=N)N)NC(=O)[C@H](C)NC(=O)[C@H](CCCNC(=N)N)NC(=O)[C@H](C)NC(=O)[C@H](CCC(N)=O)NC(=O)[C@H](CO)NC(=O)[C@H](CC(C)C)NC(=O)[C@H](CC(C)C)NC(=O)[C@@H](NC(=O)[C@H](CCC(N)=O)NC(=O)[C@H](CC(C)C)NC(=O)[C@H](CC(C)C)NC(=O)CNC(=O)[C@@H](NC(=O)[C@@H]1CCCN1C(=O)[C@@H](NC(=O)[C@H](CC(=O)O)NC(=O)[C@H](CC(C)C)NC(=O)[C@H](CO)NC(=O)[C@H](CC(C)C)NC(=O)[C@@H](NC(=O)[C@@H]1CCCN1)C(C)C)C(C)C)[C@@H](C)CC)[C@@H](C)CC)[C@@H](C)CC)C(=O)N[C@@H](C)C(=O)N[C@@H](CCC(=O)O)C(=O)N[C@H](C(N)=O)C(C)C [SEQ ID NO: 238] (H-PVLSLDVPIGLLQILLSQARARAAREQAK([AEEA-AEEA-γGlu-γGlu-C20 diacid])[Aib]NAEI[Nle]AEV-NH2)
relative body weight ([1]; 28 days, compared to vehicle): prolonged dose-dependent reduction
Blood HbA1c ([1]; 10 nmol/kg): 4.3 ± 0.04 %
M. Gastrocnemius ([1]; 10 nmol/kg): 0.18 ± 0.001 g
M. Soleus ([1]; 10 nmol/kg): 0.012 ± 0.0003 g
Body weight at termination ([1]; 10 nmol/kg): 39.1 ± 0.7 g
Fat mass change from baseline ([1]; 10 nmol/kg): -9.5 ± 0.6 g
Lean mass change from baseline ([1]; 10 nmol/kg): -0.4 ± 0.2 g
Relative body weight change at termination ([1]; 10 nmol/kg): 82.3 ± 1.2 %
Blood HbA1c ([1]; 30 nmol/kg): 4.4 ± 0.1 %
M. Gastrocnemius ([1]; 30 nmol/kg): 0.18 ± 0.004 g
M. Soleus ([1]; 30 nmol/kg): 0.011 ± 0.0007 g
Body weight at termination ([1]; 30 nmol/kg): 37.4 ± 0.9 g
Fat mass change from baseline ([1]; 30 nmol/kg): -10.7 ± 0.3 g
Lean mass change from baseline ([1]; 30 nmol/kg): -0.7 ± 0.3 g
Relative body weight change at termination ([1]; 30 nmol/kg): 77.9 ± 0.7 %
EC50 (hCRHR2a): 0.018 nM
EC50 (hCRHR2b): 0.016 nM
EC50 (mCRHR2): 0.0047 nM
EC50 (hCRHR1): > 5000 nM
